We go through 30 compounds from patent US9139567B2, “Arylpyrazole ethers as inhibitors of leukotriene A4 hydrolase” (Boehringer Ingelheim International GmbH, priority 2011, dated 2015).

The test system of test [1] is LTB4 production in human whole blood. Description: LTB4 production inhibition assay in human whole blood (calcimycin-stimulated). It is filed as cell-based. To be noted: heparinized human whole blood, 15 min 37° C., calcimycin 20 μM 30 min, plasma LTB4 by HTRF. The method, then: Compounds of the invention are additionally tested in a human whole blood assay to determine their ability to inhibit the synthesis of LTB4 in a cellular system. Compounds are combined with heparinized human whole blood and incubated for 15 minutes at 37° C. Calcimycin (20 μM final, prepared in phosphate-buffered saline, pH 7.4) is then added and the mixture is incubated for another 30 minutes at 37° C. The samples are centrifuged for 5 min at low speed (1500×g) and the plasma layer is removed. Plasma LTB4 concentrations are then measured using an antibody-based homogenous time-resolved fluorescence method (CisBio, Bedford, Mass.).
In general terms: Time-resolved FRET reads energy transfer from a long-lived donor to a nearby acceptor.

Test [2] addresses T1, human LTA4 hydrolase (Homo sapiens, UniProt P09960).
T1 sequence (P09960 1-611): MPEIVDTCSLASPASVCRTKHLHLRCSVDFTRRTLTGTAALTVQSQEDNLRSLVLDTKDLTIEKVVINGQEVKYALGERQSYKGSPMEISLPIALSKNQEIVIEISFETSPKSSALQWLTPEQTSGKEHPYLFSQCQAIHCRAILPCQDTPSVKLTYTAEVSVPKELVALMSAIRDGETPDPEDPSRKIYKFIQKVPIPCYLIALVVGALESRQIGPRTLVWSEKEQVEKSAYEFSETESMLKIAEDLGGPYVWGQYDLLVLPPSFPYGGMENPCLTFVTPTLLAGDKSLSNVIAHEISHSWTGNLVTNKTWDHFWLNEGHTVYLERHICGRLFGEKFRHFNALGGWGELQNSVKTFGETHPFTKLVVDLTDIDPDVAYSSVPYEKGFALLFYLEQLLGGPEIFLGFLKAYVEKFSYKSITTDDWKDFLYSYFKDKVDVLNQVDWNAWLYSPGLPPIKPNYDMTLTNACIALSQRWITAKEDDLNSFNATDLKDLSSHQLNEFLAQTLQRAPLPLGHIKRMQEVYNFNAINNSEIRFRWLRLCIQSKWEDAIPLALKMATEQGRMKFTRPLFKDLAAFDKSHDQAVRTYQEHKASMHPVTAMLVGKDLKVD
Description: LTA4H enzyme assay (cleavage of Arg-AMC, fluorescence). It counts as biochemical. To be noted: LTA4H enzyme 1 nM, Arg-AMC substrate 50 μM, room temperature 1 h. The method, then: Compounds are assessed for the ability to interact with human LTA4 hydrolase in an enzymatic assay that measures the ability of the enzyme to cleave the peptide bond of arginyl-aminomethylcoumarin (Arg-AMC). LTA4H Enzyme (1 nM final), Arg-AMC substrate (50 μM final), and compound are combined in a reaction buffer (50 mM Tris-HCl (pH 7.5), 100 mM KCl, 0.5% bovine serum albumin) at room temperature for 1 h. The formation of product is assessed by measuring the fluorescence of aminomethylcoumarin product (excitation wavelength 380 nm/emission wavelength 460 nm).

pIC50: −log10 of the molar value. Where only a bound is given, the exact number is not on record here.

As to `c1cc(-c2ccc(Oc3ccc(OCC4COCCN4)cc3)nc2)[nH]n1` (racemic) [Example 16, 3-[(4-{[5-(1H-pyrazol-5-yl)pyridin-2-yl]oxy}phenoxy)methyl]morpholine], the figures for the pIC50 in test [1] and in test [2] were 7.28 and 9.70, respectively.

For the compound `O=C1CC[C@H](COc2ccc(Oc3ccc(-c4ccn[nH]4)cc3)cc2)N1` [Example 1, (5R)-5-({4-[4-(1H-pyrazol-5-yl)phenoxy]phenoxy}methyl)pyrrolidin-2-one], the pIC50 was 6.61 in test [1] and 9.70 in test [2].

With `O=C1CC[C@@H](COc2ccc(Oc3ccc(-c4ccn[nH]4)cc3)cc2)N1` [Example 2, (5S)-5-({4-[4-(1H-pyrazol-5-yl)phenoxy]phenoxy}methyl)pyrrolidin-2-one], the negative-log IC50 (pIC50) was 6.79 in test [1] and 9.70 in test [2].

Regarding `O=C1CC[C@@H](COc2ccc(Oc3ccc(-c4ccn[nH]4)cn3)cc2)N1` [Example 3, (5S)-5-[(4-{[5-(1H-pyrazol-5-yl)pyridin-2-yl]oxy}phenoxy)methyl]pyrrolidin-2-one], the pIC50 in test [1] was 6.85; in test [2], 9.70.

With `c1cc(-c2ccc(Oc3ccc(O[C@@H]4CCOC4)cc3)cc2)[nH]n1` [Example 4, 5-(4-{4-[(3R)-tetrahydrofuran-3-yloxy]phenoxy}phenyl)-1H-pyrazole], the pIC50 is 5.98 in test [1] and 8.41 in test [2].

Consider `c1cc(-c2ccc(Oc3ccc(OCC4CCCO4)cc3)cc2)[nH]n1` (stereo not drawn) [Example 5, 5-{4-[4-(tetrahydrofuran-2-ylmethoxy)phenoxy]phenyl}-1H-pyrazole], for which the pIC50 in test [1] is 5.87; in test [2], 8.17.

As to `O=C1CC[C@H](Oc2ccc(Oc3ccc(-c4ccn[nH]4)cc3)cn2)CN1` [Example 6, (5S)-5-({5-[4-(1H-pyrazol-5-yl)phenoxy]pyridin-2-yl}oxy)piperidin-2-one], the pIC50 in test [1] was 5.97; in test [2] it was 8.46.

Take `CN1CC(COc2ccc(Oc3ccc(-c4ccn[nH]4)cc3)cc2)CC1=O` (stereo not drawn) [Example 7, 1-methyl-4-({4-[4-(1H-pyrazol-5-yl)phenoxy]phenoxy}methyl)pyrrolidin-2-one]: the values for the pIC50 in test [1] and in test [2] were 6.55 and 9.30, respectively.

For `O=C1CCC(Oc2ccc(Oc3ccc(-c4ccn[nH]4)cc3)cc2)CN1` (stereo not drawn) [Example 8, 5-{4-[4-(1H-pyrazol-5-yl)phenoxy]phenoxy}piperidin-2-one], the negative logarithm of the IC50 (pIC50) in test [1] is 6.65; in test [2], 9.30.

As to `O=C1NCC[C@@H]1Oc1ccc(Oc2ccc(-c3ccn[nH]3)cc2)cc1` [Example 9, (3S)-3-{4-[4-(1H-pyrazol-5-yl)phenoxy]phenoxy}pyrrolidin-2-one], the pIC50 in test [1] is not above 5.30; in test [2], 7.12.

In the case of `O=C1NC(COc2ccc(Oc3ccc(-c4ccn[nH]4)cc3)cc2)CO1` (stereo not drawn) [Example 10, 4-({4-[4-(1H-pyrazol-5-yl)phenoxy]phenoxy}methyl)-1,3-oxazolidin-2-one], the results for the pIC50 in test [1] and in test [2] were 6.90 and 9.70, respectively.

As for `O=C1NCC(COc2ccc(Oc3ccc(-c4ccn[nH]4)cc3)cc2)O1` (stereo not drawn) [Example 11, 5-({4-[4-(1H-pyrazol-5-yl)phenoxy]phenoxy}methyl)-1,3-oxazolidin-2-one], the pIC50 was 6.24 in test [1] and 8.89 in test [2].

Consider `O=C1N[C@H](COc2ccc(Oc3ccc(-c4ccn[nH]4)cc3)cc2)CO1` [Example 12, (4R)-4-({4-[4-(1H-pyrazol-5-yl)phenoxy]phenoxy}methyl)-1,3-oxazolidin-2-one], for which the values for the negative logarithm of the IC50 (pIC50) in test [1] and in test [2] were 6.98 and 10.00, respectively.

As for `O=C1CC[C@H](Oc2ccc(Oc3ccc(-c4cc[nH]n4)cc3)cc2)CN1` [Example 13, (5S)-5-{4-[4-(1H-pyrazol-3-yl)phenoxy]phenoxy}piperidin-2-one], the results for the pIC50 in test [1] and in test [2] were 6.67 and 9.30, respectively.

On to `O=C1CC[C@@H](Oc2ccc(Oc3ccc(-c4cc[nH]n4)cc3)cc2)CN1` [Example 14, (5R)-5-{4-[4-(1H-pyrazol-3-yl)phenoxy]phenoxy}piperidin-2-one], for which the pIC50 in test [1] was 6.75; in test [2] it was 9.52.

On to `O=C1N[C@@H](COc2ccc(Oc3ccc(-c4ccn[nH]4)cc3)cc2)CO1` [Example 15, (4S)-4-({4-[4-(1H-pyrazol-5-yl)phenoxy]phenoxy}methyl)-1,3-oxazolidin-2-one], for which the pIC50 in test [1] is 6.82; in test [2], 9.52.

On to `O=C1CC[C@@H](Oc2ccc(Oc3ccc(-c4ccn[nH]4)cn3)cc2)CN1` [Example 17, (5R)-5-(4-{[5-(1H-pyrazol-5-yl)pyridin-2-yl]oxy}phenoxy)piperidin-2-one], for which the pIC50 in test [1] was 6.37; in test [2] it was 8.82.

Regarding `O=C1CC[C@@H](Oc2ccc(Cc3ccc(-c4ccn[nH]4)cc3)cc2)CN1` [Example 18, (5R)-5-{4-[4-(1H-pyrazol-5-yl)benzyl]phenoxy}piperidin-2-one], the pIC50 is 6.24 in test [1] and 9.10 in test [2].

`O=C1CC[C@@H](Oc2ccc(Oc3ccc(-c4ccn[nH]4)cc3)cn2)CN1` [Example 19, (5R)-5-({5-[4-(1H-pyrazol-5-yl)phenoxy]pyridin-2-yl}oxy)piperidin-2-one]: the negative logarithm of the IC50 (pIC50) in test [1] is 6.26; in test [2], 8.72.

For `O=C1N[C@@H](COc2ccc(Cc3ccc(-c4ccn[nH]4)cc3)cc2)CO1` [Example 20, (4S)-4-({4-[4-(1H-pyrazol-5-yl)benzyl]phenoxy}methyl)-1,3-oxazolidin-2-one], the pIC50 was 6.64 in test [1] and 9.22 in test [2].

Consider `O=C1CCCN1CCOc1ccc(Oc2ccc(-c3ccn[nH]3)cc2)cc1` [Example 21, 1-(2-{4-[4-(lH-pyrazol-5-yl)phenoxy]phenoxy}ethyl)pyrrolidin-2-one], for which the pIC50 is 6.09 in test [1] and 9.15 in test [2].

Regarding `c1cc(-c2ccc(Oc3ccc(OCCN4CCOCC4)cc3)cc2)[nH]n1` [Example 22, 4-(2-{4-[4-(1H-pyrazol-5-yl)phenoxy]phenoxy}ethyl)morpholine], the pIC50 in test [1] is 6.75; in test [2], 9.70.

With `O=C1CCCN1CCCOc1ccc(Oc2ccc(-c3ccn[nH]3)cc2)cc1` [Example 23, 1-(3-{4-[4-(1H-pyrazol-5-yl)phenoxy]phenoxy}propyl)pyrrolidin-2-one], the pIC50 in test [1] was 6.28; in test [2], 9.15.

Regarding `O=C1N[C@H](COc2ccc(Oc3ccc(-c4ccn[nH]4)cn3)cc2)CO1` [Example 24, (4R)-4-[(4-{[5-(1H-pyrazol-5-yl)pyridin-2-yl]oxy}phenoxy)methyl]-1,3-oxazolidin-2-one], the pIC50 in test [1] was 6.91; in test [2], 9.70.

Consider `c1cc(-c2ccc(Cc3ccc(OCCN4CCOCC4)cc3)cc2)[nH]n1` [Example 25, 4-(2-{4-[4-(1H-pyrazol-5-yl)benzyl]phenoxy}ethyl)morpholine], for which the pIC50 in test [1] was 6.91; in test [2], 9.30.

Consider `Cn1ccnc1COc1ccc(Oc2ccc(-c3ccn[nH]3)cc2)cc1` [Example 26, 5-(4-{4-[(1-methyl-1H-imidazol-2-yl)methoxy]phenoxy}phenyl)-1H-pyrazole], for which the negative-log IC50 (pIC50) in test [1] was 5.68; in test [2], 8.92.

`c1cc(-c2ccc(Oc3ccc(OCc4cnc[nH]4)cc3)cc2)[nH]n1` [Example 27, 5-{4-[4-(1H-imidazol-5-ylmethoxy)phenoxy]phenyl}-1H-pyrazole]: the negative-log IC50 (pIC50) is 5.74 in test [1] and 8.66 in test [2].

Consider `c1ccc2[nH]c(COc3ccc(Oc4ccc(-c5ccn[nH]5)cc4)cc3)nc2c1` [Example 28, 2-({4-[4-(1H-pyrazol-5-yl)phenoxy]phenoxy}methyl)-1H-benzimidazole], for which the negative logarithm of the IC50 (pIC50) was not above 5.30 in test [1] and 8.85 in test [2].

With `c1cncc(CCOc2ccc(Oc3ccc(-c4ccn[nH]4)cc3)cc2)c1` [Example 29, 3-(2-{4-[4-(1H-pyrazol-5-yl)phenoxy]phenoxy}ethyl)pyridine], the negative-log IC50 (pIC50) was 5.64 in test [1] and 8.31 in test [2].

As for `c1coc(COc2ccc(Oc3ccc(-c4ccn[nH]4)cc3)cc2)c1` [Example 30, 5-{4-[4-(2-furylmethoxy)phenoxy]phenyl}-1H-pyrazole], the pIC50 is not above 5.30 in test [1] and 7.18 in test [2].

By pIC50 is commonly meant the IC50 on a negative log10 scale, so that one unit is a factor of ten.
